From patent publication US8927715B2, “Inhibitors of 11β-hydroxysteroid dehydrogenase type 1” (Vitae Pharmaceuticals, Inc., priority 2006, dated 2015) come the findings set out here.

Sequence of human 11β-HSD1 (P28845 whole entry): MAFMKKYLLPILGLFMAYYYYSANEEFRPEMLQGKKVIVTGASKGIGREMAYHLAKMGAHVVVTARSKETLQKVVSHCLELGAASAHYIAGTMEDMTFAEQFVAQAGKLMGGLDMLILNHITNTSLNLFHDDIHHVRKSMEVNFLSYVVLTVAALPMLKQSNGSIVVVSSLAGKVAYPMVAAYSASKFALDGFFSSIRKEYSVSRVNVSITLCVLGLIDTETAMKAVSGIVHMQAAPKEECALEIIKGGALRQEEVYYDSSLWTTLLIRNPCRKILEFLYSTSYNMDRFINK

In this assay the target is human 11β-HSD1 (Homo sapiens, UniProt P28845). In words: Inhibition of a microsomal preparation of 11β-HSD1, SPA (Biological Test Example 2). It counts as biochemical. Also noted: expressed in transfected cells; host or cells: CHO cells (microsomes). The following applies: read-out: Biological Test Example 2 (IC50 class). As to the method:
All reactions are carried out at room temperature in 96 well clear flexible PET Microbeta plates (PerkinElmer). […] After a 10 minute pre-incubation, 50 μL of enzyme solution containing microsomes isolated from CHO cells overexpressing human 11β-HSD1 (10-20 μg/ml of total protein) is added, and the plates are then incubated for 90 minutes at room temperature. The reaction is stopped by adding 50 μl of the SPA beads suspension containing […] 18β-glycyrrhetinic acid, 5 mg/ml protein A coated YSi SPA beads (GE Healthcare) and 3.3 μg/ml of anti-cortisol antibody (East Coast Biologics) in Superblock buffer (Bio-Rad). The plates are then shaken for 120 minutes at room temperature, and the SPA signal corresponding to [^3H]cortisol is measured on a Microbeta plate reader.
`O=C(O)[C@@H]1C[C@H]1C(=O)N1Cc2ccccc2C2(CCN(C(=O)OC3C4CC5CC(C4)CC3C5)CC2)C1` (mixture of isomers) [Example 100, (1RS,2RS)-2-(1′-(2-Adamantyloxycarbonyl)-2,3-dihydro-1H-spiro[isoquinoline-4,4′-piperidine]-2-ylcarbonyl)cyclopropanecarboxylic acid]: the IC50 is under 50 nM.

`O=C(NC1C2CC3CC(C2)CC1C3)N1CCC2(CC1)NC(=S)c1ccccc12` (centres unmarked) [87, Step 1 Product]: the IC50 was under 50 nM. Regarding `COC(=O)CC1CCC2(CC1)CCN(C(=O)OC1C3CC4CC(C3)CC1C4)CC2` (centres unmarked) [Example 79, (2-Adamantyl) 9-(2-methoxy-2-oxoethyl)-3-azaspiro[5.5]undecane-3-carboxylate], the IC50 was under 50 nM. With `NC(=O)CC1CC2(CCN(C(=O)NC3C4CC5CC(C4)CC3C5)CC2)c2c(Br)cccc21` (racemic) [Example 131, (±)-3-(2-amino-2-oxoethyl)-7-bromo-N-(2-adamantyl)-2,3-dihydrospiro[indene-1,4′-piperidine]-1′-carboxamide], the IC50 was under 50 nM.

On to `C=CCC1OC2(CCN(C(=O)NC3C4CC5CC(C4)CC3C5)CC2)c2c(Cl)cccc21` (centres unmarked) [Example 102, 3-Allyl-7-chloro-N-(2-adamantyl)-3H-spiro[isobenzofuran-1,4′-piperidine]-1′-carboxamide], for which the IC50 was under 50 nM. As for `CS(=O)(=O)NC(=O)CC1CC2(CCN(C(=O)OC3C4CC5CC(C4)CC3C5)CC2)c2c(Br)cccc21` (racemic) [Example 69, (±)-2-Adamantyl 7-bromo-3-(2-(methylsulfonamido)-2-oxoethyl)-2,3-dihydrospiro[indene-1,4′-piperidine]-1′-carboxylate], the IC50 was under 50 nM. Turning to `O=C(CC1CC2(CCN(C(=O)NC3C4CC5CC(C4)CC3C5)CC2)c2c(Br)cccc21)NCCN1CCOCC1` (centres unmarked) [Example 120, 7-Bromo-N-(2-adamantyl)-3-(2-(2-morpholinoethylamino)-2-oxoethyl)-2,3-dihydrospiro[indene-1,4′-piperidine]-1′-carboxamide], the IC50 is under 50 nM. On to `O=C(NC1C2CC3CC(C2)CC1C3)N1CCC2(CCCc3ccccc32)CC1` (centres unmarked) [Example 78, N-(2-Adamantyl)-3,4-dihydro-2H-spiro[naphthalene-1,4′-piperidine]-1′-carboxamide], for which the IC50 is under 50 nM.

In the case of `CCOC(=O)CC1CC2(CCN(C(=O)NC3C4CC5CC(C4)CC3C5)CC2)c2cc(Cl)ccc21` (racemic) [Example 53, (±)-Ethyl 2-(1′-((2-adamantyl)carbamoyl)-6-chloro-2,3-dihydrospiro[indene-1,4′-piperidine]-3-yl)acetate], the IC50 was under 50 nM. `CS(=O)(=O)N1Cc2ccccc2C2(CCN(C(=O)OC3C4CC5CC(C4)CC3C5)CC2)C1` (centres unmarked) [Example 39, 2-Adamantyl 2-(methylsulfonyl)-2,3-dihydro-1H-spiro[isoquinoline-4,4′-piperidine]-1′-carboxylate]: the IC50 is under 50 nM. Turning to `CN1C(C)(C)c2cccc(Cl)c2C12CCN(C(=O)NC1C3CC4CC(C3)CC1C4)CC2` (centres unmarked) [Example 105, 7-Chloro-N-(2-adamantyl)-2,3,3-trimethylspiro[isoindoline-1,4′-piperidine]-1′-carboxamide], the IC50 was under 50 nM. In the case of `CN(C)CCCCNC(=O)CC1CC2(CCN(C(=O)NC3C4CC5CC(C4)CC3C5)CC2)c2c(Br)cccc21` (centres unmarked) [Example 118, 7-Bromo-N-(2-adamantyl)-3-(2-(4-(dimethylamino)butylamino)-2-oxoethyl)-2,3-dihydrospiro[indene-1,4-r-piperidine]-1′-carboxamide] it was under 50 nM; in that of `O=C(O)CCC(=O)N1Cc2ccccc2C2(CCN(C(=O)NC3C4CC5CC(C4)CC3C5)CC2)C1` (centres unmarked) [Example 92, 4-(1′-(2-Adamantylcarbamoyl)-1H-spiro[isoquinoline-4,4′-piperidine]-2(3H)-yl)-4-oxobutanoic acid], under 50 nM. Turning to `CC(C)(C(=O)O)C1CC2(CCN(C(=O)NC3C4CC5CC(C4)CC3C5)CC2)c2c(Br)cccc21` (racemic) [Example 68, (±)-2-(7-Bromo-1′-((2-adamantyl)carbamoyl)-2,3-dihydrospiro[indene-1,4′-piperidine]-3-yl-2-methylpropanoic acid], the IC50 was under 50 nM. `CN(C)C(=O)CC1CC2(CCN(C(=O)OC3C4CC5CC(C4)CC3C5)CC2)c2ccccc21` (racemic) [Example 71, (±)-2-Adamantyl 3-(2-(dimethylamino)-2-oxoethyl)-2,3-dihydrospiro[indene-1,4′-piperidine]-1′-carboxylate]: the IC50 was under 50 nM.

Take `O=C(NC1C2CC3CC(C2)CC1C3)N1CCCC2(Cc3ccccc3C2=O)C1` (centres unmarked) [27, Step 1 Product]: the IC50 was under 50 nM. Consider `CCOC(=O)CC1CC2(CCN(C(=O)NC3C4CC5CC(C4)CC3C5)CC2)c2ccc(Cl)cc21` (racemic) [Example 55, (±)-Ethyl 2-(1′-((2-adamantyl)carbamoyl)-5-chloro-2,3-dihydrospiro[indene-1,4′-piperidine]-3-yl)acetate], for which the IC50 was under 50 nM. In the case of `CN(C)CCNC(=O)CC1CC2(CCN(C(=O)NC3C4CC5CC(C4)CC3C5)CC2)c2c(Br)cccc21` (centres unmarked) [Example 114, 7-Bromo-N-(2-adamantyl)-3-(2-(2-(dimethylamino)ethylamino)-2-oxoethyl)-2,3-dihydrospiro[indene-1,4′-piperidine]-1′-carboxamide] it was under 50 nM. For `N#Cc1ccc(N2Cc3ccccc3C3(CCN(C(=O)OC4C5CC6CC(C5)CC4C6)CC3)C2)nc1` (centres unmarked) [Example 41, 2-Adamantyl 2-(5-cyanopyridin-2-yl)-2,3-dihydro-1H-spiro[isoquinoline-4,4′-piperidine]-1′-carboxylate], the IC50 is under 50 nM. On to `CC1(C)NC2(CCN(C(=O)NC3C4CC5CC(C4)CC3C5)CC2)c2c(Cl)cccc21` (centres unmarked) [Example 104, 7-Chloro-N-(2-adamantyl)-3,3-dimethylspiro[isoindoline-1,4′-piperidine]-1′-carboxamide], for which the IC50 is under 50 nM.

Take `O=C(NC1C2CC3CC(C2)CC1C3)N1CCC2(CCc3ccccc32)CC1` (centres unmarked) [Example 28, N-(2-Adamantyl)-2,3-dihydrospiro[indene-1,4′-piperidine]-1′-carboxamide]: the concentration for half-maximal inhibition (IC50) was under 50 nM. As to `O=C(O)CCCC(=O)N1CC2(CCN(C(=O)NC3C4CC5CC(C4)CC3C5)CC2)c2ccccc21` (centres unmarked) [Example 93, 5-(1′-(2-Adamantylcarbamoyl)spiro[indoline-3,4′-piperidine]-1-yl)-5-oxopentanoic acid], the IC50 is under 50 nM. Next, `COC(=O)CCS(=O)(=O)N1Cc2ccccc2C2(CCN(C(=O)NC3C4CC5CC(C4)CC3C5)CC2)C1` (centres unmarked) [Example 106, Methyl 3-(1′-(2-adamantylcarbamoyl)-1-H-spiro[isoquinoline-4,4′-piperidine]-2(3H)-ylsulfonyl)propanoate]: under 50 nM; `CN1Cc2cccc(Cl)c2C12CCN(C(=O)NC1C3CC4CC(C3)CC1C4)CC2` (centres unmarked) [Example 88, 7-Chloro-N-(2-adamantyl)-2-methylspiro[isoindoline-1,4′-piperidine]-1′-carboxamide]: under 50 nM; `Cc1cccc2c1C1(CCN(C(=O)NC3C4CC5CC(C4)CC3C5)CC1)CC2CC(=O)O` (racemic) [Example 48, (±)-2-(1′-((2-Adamantyl)carbamoyl)-7-methyl-2,3-dihydrospiro[indene-1,4′-piperidine]-3-yl)acetic acid]: under 50 nM. For `CCOC(=O)CC1CC2(CCN(C(=O)NC34CC5CC(CC(C5)C3)C4)CC2)c2c(Br)cccc21` (racemic) [Example 61, (±)-Ethyl 2-(7-bromo-1′-((1-adamantyl)carbamoyl)-2,3-dihydrospiro[indene-1,4′-piperidine]-3-yl)acetate], the IC50 is under 50 nM. In the case of `Cc1ccc2c(c1)C1(CCN(C(=O)NC3C4CC5CC(C4)CC3C5)CC1)CC2CC(=O)O` (racemic) [Example 57, (±)-2-(1′-((2-Adamantyl)carbamoyl)-6-methyl-2,3-dihydrospiro[indene-1,4′-piperidine]-3-yl)acetic acid], the half-inhibitory concentration (IC50) is under 50 nM. Next, `O=C(CC1CC2(CCN(C(=O)NC3C4CC5CC(C4)CC3C5)CC2)c2c(Br)cccc21)N1CCNCC1` (centres unmarked) [Example 110, 7-Bromo-N-(2-adamantyl)-3-(2-oxo-2-(piperazin-1-yl)ethyl)-2,3-dihydrospiro[indene-1,4′-piperidine]-1′-carboxamide]: under 50 nM; `O=C(NC1C2CC3CC(C2)CC1C3)N1CCC2(CC1)OCc1ccccc12` (centres unmarked) [Example 83, N-(2-Adamantyl)-3H-spiro[isobenzofuran-1,4′-piperidine]-1′-carboxamide]: under 50 nM; `CCOC(=O)CC1CC2(CCN(C(=O)NC3C4CC5CC(C4)CC3C5)CC2)c2cccc(C)c21` (racemic) [Example 49, (±)-Ethyl 2(1′-((2-adamantyl)carbamoyl)-4-methyl-2,3-dihydrospiro[indene-1,4′-piperidine]-3-yl)acetate]: under 50 nM. As to `O=C(NC1C2CC3CC(C2)CC1C3)N1CCC2(CC1)CC(CCN1CCOCC1)c1cccc(Br)c12` (racemic) [Example 126, (±)-7-Bromo-N-(2-adamantyl)-3-(2-morpholinoethyl)-2,3-dihydrospiro[indene-1,4′-piperidine]-1′-carboxamide], the IC50 was under 50 nM. For the compound “3-(1′-((2-Adamantyl)carbamoyl)-1H-spiro[isoquinoline-4,4′-piperidine]-2(3H)-yl)propanoic acid [Example 33]”, the IC50 is under 50 nM.

As usually defined, the IC50 is the concentration at which inhibition is half-maximal.
